Test results: US20130053381A1, “2,4-DIOXO-1,4-DIHYDRO-2H-QUINAZOLIN-3-YL-SULFONAMIDE DERIVATIVES” (NOVARTIS AG, priority 2010, published 2013)

system: OF1 mice; assay: Maximal electroshock test (MES Test); assay type: in vivo; conditions: Mus musculus, po; 50 mg/kg, p.o., pre-treatment time −1 h; read-out: %-Protection
Procedure, shortened: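 Readout: fraction of five OF1 mice protected, meaning seizure duration 3 s or less, after a 50 Hz, 18 mA, 0.2 s temporal-electrode shock. Dosing was oral, usually 50 mg/kg, one hour beforehand; ED50 values were derived and post-shock blood taken for exposure.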

Q: How did the responders at 50 mg/kg turn out when `CCCC(=O)N(n1c(=O)[nH]c2cc(C(F)(F)F)c(C(O)CC)cc2c1=O)S(C)(=O)=O` (stereo not shown) [Example 12.03, N-Butyryl-N-[6-(1-hydroxy-propyl)-2,4-dioxo-7-trifluoromethyl-1,4-dihydro-2H-quinazolin-3-yl]-methanesulfonamide] was run?
A: 40%

Q: With `CCC(O)c1cc2c(=O)n(N(C(=O)C(C)C)S(C)(=O)=O)c(=O)[nH]c2cc1C(F)(F)F` (stereo not shown) [Example 12.04, N-[6-(1-Hydroxy-propyl)-2,4-dioxo-7-trifluoromethyl-1,4-dihydro-2H-quinazolin-3-yl]-N-isobutyryl-methanesulfonamide] as the molecule, how does the responders at 50 mg/kg read?
A: 40%

Q: How did the responders at 50 mg/kg turn out when `CCCCC(=O)N(n1c(=O)[nH]c2cc(C(F)(F)F)c(C(O)CC)cc2c1=O)S(C)(=O)=O` (stereo not shown) [Example 12.05, N-[6-(1-Hydroxy-propyl)-2,4-dioxo-7-trifluoromethyl-1,4-dihydro-2H-quinazolin-3-yl]-N-pentanoyl-methanesulfonamide] was run?
A: 40%

Q: `CCc1cc2[nH]c(=O)n(N(C(=O)OCC(C)C)S(C)(=O)=O)c(=O)c2cc1-c1ccnn1CC` [Example 13.01, Methanesulfonyl-[7-ethyl-6-(2-ethyl-2H-pyrazol-3-yl)-2,4-dioxo-1,4-dihydro-2H-quinazolin-3-yl]carbamic acid isobutyl ester] was tested. Which responders at 50 mg/kg did it give?
A: 20%

Q: Which responders at 50 mg/kg does the source give for `CCCCCC(=O)N(n1c(=O)[nH]c2cc(CC)c(-c3ccnn3CC)cc2c1=O)S(C)(=O)=O` [Example 13.02, N-[7-Ethyl-6-(2-ethyl-2H-pyrazol-3-yl)-2,4-dioxo-1,4-dihydro-2H-quinazolin-3-yl]-N-hexanoyl-methanesulfonamide] here?
A: 20%

Q: For `CCC(=O)N(n1c(=O)[nH]c2cc(CC)c(-c3ccnn3CC)cc2c1=O)S(C)(=O)=O` [Example 13.03, N-[7-Ethyl-6-(2-ethyl-2H-pyrazol-3-yl)-2,4-dioxo-1,4-dihydro-2H-quinazolin-3-yl]-N-propionyl-methanesulfonamide], which responders at 50 mg/kg is on record?
A: 20%

Q: With `CCn1nccc1-c1cc2c(=O)n(NS(C)(=O)=O)c(=O)[nH]c2cc1C(F)F` [Example 14.0, N-[7-Difluoromethyl-6-(2-ethyl-2H-pyrazol-3-yl)-2,4-dioxo-1,4-dihydro-2H-quinazolin-3-yl]-methanesulfonamide] as the molecule, how does the responders at 50 mg/kg read?
A: 0%

Q: Which responders at 50 mg/kg does the source give for `CCn1nccc1-c1cc2c(=O)n(N(C(=O)COC(C)=O)S(C)(=O)=O)c(=O)[nH]c2cc1C(F)F` [Example 14.01, Acetic acid 2-{[7-difluoromethyl-6-(2-ethyl-2H-pyrazol-3-yl)-2,4-dioxo-1,4-dihydro-2H-quinazolin-3-yl]-methanesulfonyl-amino}-2-oxo-ethyl ester] here?
A: 20%

Q: Which responders at 50 mg/kg does the source give for `CCn1nccc1-c1cc2c(=O)n(NS(C)(=O)=O)c(=O)[nH]c2cc1C(F)(F)F` [Example 15.0, N-[6-(2-Ethyl-2H-pyrazol-3-yl)-2,4-dioxo-7-trifluoromethyl-1,4-dihydro-2H-quinazolin-3-yl]-methanesulfonamide] here?
A: 0%

Q: How did the responders at 50 mg/kg turn out when `CCn1nccc1-c1cc2c(=O)n(N(C(=O)OC)S(C)(=O)=O)c(=O)[nH]c2cc1C(F)(F)F` [Example 15.01, [6-(2-Ethyl-2H-pyrazol-3-yl)-2,4-dioxo-7-trifluoromethyl-1,4-dihydro-2H-quinazolin-3-yl]-methanesulfonyl-carbamic acid methyl ester] was run?
A: 40%

Q: With `CCC(=O)N(n1c(=O)[nH]c2cc(C(F)(F)F)c(-c3ccnn3CC)cc2c1=O)S(C)(=O)=O` [Example 15.02, N-[6-(2-Ethyl-2H-pyrazol-3-yl)-2,4-dioxo-7-trifluoromethyl-1,4-dihydro-2H-quinazolin-3-yl]-N-propionyl-methanesulfonamide] as the molecule, how does the responders at 50 mg/kg read?
A: 20%

Q: For `CCCCOC(=O)N(n1c(=O)[nH]c2cc(C(F)(F)F)c(-c3ccnn3CC)cc2c1=O)S(C)(=O)=O` [Example 15.03, [6-(2-Ethyl-2H-pyrazol-3-yl)-2,4-dioxo-7-trifluoromethyl-1,4-dihydro-2H-quinazolin-3-yl]-methanesulfonyl-carbamic acid butyl ester], which responders at 50 mg/kg is on record?
A: 20%

Q: For `CCn1nccc1-c1cc2c(=O)n(N(C(=O)C(C)(C)C)S(C)(=O)=O)c(=O)[nH]c2cc1C(F)(F)F` [Example 15.04, N-(2,2-Dimethyl-propionyl)-N-[6-(2-ethyl-2H-pyrazol-3-yl)-2,4-dioxo-7-trifluoromethyl-1,4-dihydro-2H-quinazolin-3-yl]-methanesulfonamide], which responders at 50 mg/kg is on record?
A: 20%

same assay, conditions: Mus musculus; dose of up to 50 mg/kg, p.o., 1 hour prior to induction of convulsions; read-out: %-Protection

Q: For `CCc1cc2[nH]c(=O)n(N(C(=O)OCCOC)S(C)(=O)=O)c(=O)c2cc1-c1ccnn1CC` [Methanesulfonyl-[7-ethyl-6-(2-ethyl-2H-pyrazol-3-yl)-2,4-dioxo-1,4-dihydro-2H-quinazolin-3-yl]carbamic acid 2-methoxy-ethyl ester], which responders at 50 mg/kg is on record?
A: 0%

Q: For `CCOC(=O)N(n1c(=O)[nH]c2cc(CC)c(-c3ccnn3CC)cc2c1=O)S(C)(=O)=O` [Methanesulfonyl-[7-ethyl-6-(2-ethyl-2H-pyrazol-3-yl)-2,4-dioxo-1,4-dihydro-2H-quinazolin-3-yl]carbamic acid ethyl ester], which responders at 50 mg/kg is on record?
A: 0%

Q: Which responders at 50 mg/kg does the source give for `CCc1cc2[nH]c(=O)n(N(C(=O)OC)S(C)(=O)=O)c(=O)c2cc1-c1ccnn1CC` [Methanesulfonyl-[7-ethyl-6-(2-ethyl-2H-pyrazol-3-yl)-2,4-dioxo-1,4-dihydro-2H-quinazolin-3-yl]carbamic acid methyl ester] here?
A: 0%

Q: With `CCCOC(=O)N(n1c(=O)[nH]c2cc(CC)c(-c3ccnn3CC)cc2c1=O)S(C)(=O)=O` [Methanesulfonyl-[7-ethyl-6-(2-ethyl-2H-pyrazol-3-yl)-2,4-dioxo-1,4-dihydro-2H-quinazolin-3-yl]carbamic acid propyl ester] as the molecule, how does the responders at 50 mg/kg read?
A: 0%

Q: For `CCCCCCOC(=O)N(n1c(=O)[nH]c2cc(CC)c(-c3ccnn3C)cc2c1=O)S(C)(=O)=O` [Methanesulfonyl-[7-ethyl-6-(2-methyl-2H-pyrazol-3-yl)-2,4-dioxo-1,4-dihydro-2H-quinazolin-3-yl]carbamic acid hexyl ester], which responders at 50 mg/kg is on record?
A: 0%

Q: For `CCCCCCOC(=O)N(n1c(=O)[nH]c2cc(C(F)(F)F)c([C@H]3CCCO3)cc2c1=O)S(C)(=O)=O` [Methanesulfonyl-[(R)-2,4-Dioxo-6-tetrahydro-furan-2-yl-7-trifluoromethyl-1,4-dihydro-2H-quinazolin-3-yl]carbamic acid hexyl ester], which responders at 50 mg/kg is on record?
A: 0%

Q: `CC(C)OC(=O)N(n1c(=O)[nH]c2cc(C(F)(F)F)c([C@H]3CCCO3)cc2c1=O)S(C)(=O)=O` [Methanesulfonyl-[(R)-2,4-Dioxo-6-tetrahydro-furan-2-yl-7-trifluoromethyl-1,4-dihydro-2H-quinazolin-3-yl]carbamic acid isopropyl ester] was tested. Which responders at 50 mg/kg did it give?
A: 0%

Q: Which responders at 50 mg/kg does the source give for `CCCCCOC(=O)N(n1c(=O)[nH]c2cc(C(F)(F)F)c([C@H]3CCCO3)cc2c1=O)S(C)(=O)=O` [Methanesulfonyl-[(R)-2,4-Dioxo-6-tetrahydro-furan-2-yl-7-trifluoromethyl-1,4-dihydro-2H-quinazolin-3-yl]carbamic acid pentyl ester] here?
A: 0%

Q: `CCCOC(=O)N(n1c(=O)[nH]c2cc(C(F)(F)F)c([C@H]3CCCO3)cc2c1=O)S(C)(=O)=O` [Methanesulfonyl-[(R)-2,4-Dioxo-6-tetrahydro-furan-2-yl-7-trifluoromethyl-1,4-dihydro-2H-quinazolin-3-yl]carbamic acid propyl ester] was tested. Which responders at 50 mg/kg did it give?
A: 0%
